We go through 16 compounds from the Kinase Knowledgebase extract (Sharma et al. 2016).

In the experiment the target is ROCK2 (human) (UniProt O75116). Nature of the experiment: Enzyme Assay.
ROCK2 (human), sequence (O75116 whole entry, looked up): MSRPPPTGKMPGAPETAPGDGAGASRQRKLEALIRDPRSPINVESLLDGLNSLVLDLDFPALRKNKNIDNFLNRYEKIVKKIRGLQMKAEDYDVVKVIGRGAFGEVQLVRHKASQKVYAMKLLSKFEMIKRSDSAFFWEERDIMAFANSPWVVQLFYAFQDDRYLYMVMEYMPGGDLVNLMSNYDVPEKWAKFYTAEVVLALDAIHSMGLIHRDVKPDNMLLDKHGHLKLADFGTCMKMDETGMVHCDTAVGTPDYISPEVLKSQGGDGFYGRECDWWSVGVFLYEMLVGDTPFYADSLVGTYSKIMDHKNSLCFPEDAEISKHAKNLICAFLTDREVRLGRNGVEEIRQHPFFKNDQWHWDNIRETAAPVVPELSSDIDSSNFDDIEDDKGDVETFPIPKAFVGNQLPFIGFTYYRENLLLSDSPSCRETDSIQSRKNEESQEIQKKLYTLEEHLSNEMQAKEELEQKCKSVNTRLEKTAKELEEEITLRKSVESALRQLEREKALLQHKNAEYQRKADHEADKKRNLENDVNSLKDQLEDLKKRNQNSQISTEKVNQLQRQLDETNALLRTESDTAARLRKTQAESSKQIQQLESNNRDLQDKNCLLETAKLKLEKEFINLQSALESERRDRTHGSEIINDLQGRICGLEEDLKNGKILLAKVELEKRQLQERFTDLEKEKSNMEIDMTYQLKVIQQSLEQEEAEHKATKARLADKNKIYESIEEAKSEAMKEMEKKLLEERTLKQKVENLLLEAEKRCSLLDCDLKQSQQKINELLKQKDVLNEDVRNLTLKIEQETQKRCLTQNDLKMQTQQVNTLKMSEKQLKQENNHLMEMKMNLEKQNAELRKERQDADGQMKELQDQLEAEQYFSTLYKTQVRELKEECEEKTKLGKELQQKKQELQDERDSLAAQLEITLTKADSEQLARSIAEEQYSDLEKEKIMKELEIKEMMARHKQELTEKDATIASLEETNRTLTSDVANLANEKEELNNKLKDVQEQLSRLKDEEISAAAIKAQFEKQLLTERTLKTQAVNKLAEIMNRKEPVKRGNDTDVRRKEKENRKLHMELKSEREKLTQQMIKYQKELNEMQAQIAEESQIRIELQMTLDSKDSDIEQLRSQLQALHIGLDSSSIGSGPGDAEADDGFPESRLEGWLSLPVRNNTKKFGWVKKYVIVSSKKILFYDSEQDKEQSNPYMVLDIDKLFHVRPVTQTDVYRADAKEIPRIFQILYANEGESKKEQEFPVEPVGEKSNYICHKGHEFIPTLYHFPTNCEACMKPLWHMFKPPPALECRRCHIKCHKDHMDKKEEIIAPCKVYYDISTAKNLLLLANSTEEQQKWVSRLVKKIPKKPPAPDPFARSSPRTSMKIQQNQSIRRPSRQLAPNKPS

For orientation: IC50 means the concentration that gives 50% inhibition. A low value points to higher potency. `Cc1cc(NC2CCOC2=O)ccc1NC(=O)c1cccc(-c2cc(C(=O)Nc3ccncc3F)ccc2CN)c1` (stereo unspecified): the IC50 was < 100 nM.
As for `NCc1ccc(C(=O)Nc2ccncc2F)cc1-c1cccc(C(=O)Nc2ccc(SC3COC(=O)C3)cc2)c1` (stereo unspecified), the figure is < 100 nM.
`CN(c1ccc(NC(=O)c2cccc(-c3cc(C(=O)Nc4ccncc4F)ccc3CN)c2)cc1)C1CCOC1=O` (stereo unspecified): the IC50 is < 100 nM.
As for `NCc1ccc(C(=O)Nc2ccncc2F)cc1-c1cccc(C(=O)Nc2ccc(SC3CCOC3=O)cc2F)c1` (stereo unspecified), the figure is < 100 nM.
The figure for `NCc1ccc(C(=O)Nc2ccncc2F)cc1-c1cccc(C(=O)Nc2ccc(SC3CCOC3=O)cc2)c1` (stereo unspecified) is < 100 nM; for `CC1(C)COC(=O)C1Sc1ccc(NC(=O)c2cccc(-c3cc(C(=O)Nc4ccncc4F)ccc3CN)c2)cc1` (stereo unspecified) it is < 100 nM; for `NCc1ccc(C(=O)Nc2ccncc2F)cc1-c1cccc(C(=O)Nc2ccc(NC3CCOC3=O)cc2)c1` (stereo unspecified) it is < 100 nM.
With `NCc1ccc(C(=O)Nc2ccncc2F)cc1-c1cccc(C(=O)Nc2ccc(SCC3CCOC3=O)cc2)c1` (stereo unspecified), the IC50 was < 100 nM.
As for `NCc1ccc(C(=O)Nc2ccncc2F)cc1-c1cccc(NC(=O)c2ccc(SC3CCOC3=O)cc2)c1` (stereo unspecified), the figure is < 100 nM; as for `NCc1ccc(C(=O)Nc2ccncc2F)cc1-c1cccc(C(=O)Nc2ccc(CNC3CCOC3=O)cc2)c1` (stereo unspecified), < 100 nM; as for `CC1CC(Sc2ccc(NC(=O)c3cccc(-c4cc(C(=O)Nc5ccncc5F)ccc4CN)c3)cc2)C(=O)O1` (stereo unspecified), < 100 nM.
The figure for `NCc1ccc(C(=O)Nc2ccncc2F)cc1-c1cccc(C(=O)Nc2ncc(NC3CCOC3=O)s2)c1` (stereo unspecified) is < 100 nM; for `NCc1ccc(C(=O)Nc2ccncc2F)cc1-c1cccc(NC(=O)c2ccc(NC3CCOC3=O)cc2)c1` (stereo unspecified) it is < 100 nM; for `NCc1ccc(C(=O)Nc2ccncc2)cc1-c1cccc(NC(=O)c2ccc(SC3CCOC3=O)cc2)c1` (stereo unspecified) it is < 100 nM.
The figure for `NCc1ccc(C(=O)Nc2ccncc2F)cc1-c1cccc(C(=O)Nc2ccc(OC3CCOC3=O)cc2)c1` (stereo unspecified) is < 100 nM.
In the case of `NCc1ccc(C(=O)Nc2ccncc2F)cc1-c1cccc(C(=O)Nc2cccc(SC3CCOC3=O)c2)c1` (stereo unspecified), the IC50 was < 100 nM.
